The target in test [1] is human recombinant 5-HT2A receptor (Homo sapiens (Human), UniProt P28223). Put plainly: 5-HT2A receptor binding inhibition test ([3H]-Ketanserin). As to conditions: Jump-In HEK cell membrane, read-out: h-5-HT2A Ki. As for the experimental part:
Test Example 1: 5-HT2A Receptor Binding Inhibition Test
(§1) (Each Experimental Condition)
Cell membrane: Jump-In HEK cell membrane (expressing human recombinant 5-HT2A receptor)
(§2) Assay buffer: Tris-HCl 50 mmol/L (pH 7.4) containing NaCl 120 mmol/L, MgCl2.6H2O 1 mmol/L, KCl 5 mmol/L, 0.1% BSA, and CaCl2 2 mmol/L
Radioactive ligand: [^3H]-Ketanserin around Kd value calculated by the following method
(§3) Non-specific ligand: Serotonin HCl
(§4) The Kd value was calculated when the lot of cell membrane was changed. In advance, 0.5 μL of a 1 mmol/L compound for non-specific binding calculation dissolved in DMSO or DMSO was dispensed into a microplate, and the cell membrane was diluted with an Assay buffer. The radioactive ligand solution was serially diluted and the count was confirmed with a liquid scintillator. Assay buffer containing diluted cell membrane was dispensed into a microplate at 50 μL/well. Then, the radioactive ligand solution was dispensed into a microplate at 50 μL/well, and the plate was sealed. It was allowed to stand at room temperature (25° C.) for 1.5 hours. During this period, 50 mmol/L Tris-HCl (pH 7.4) was dispensed into a GF/B UniFilter plate at 50 μL/well and allowed to stand at 4° C. for 1 hour or longer. After that, filtration was performed with Cell harvester (PerkinElmer). The radioactive ligand solution was dispensed into an empty well of the GF/B UniFilter plate at 10 μL/well. After the GF/B UniFilter plate was dried at room temperature, MicroScinti 20 was dispensed into the GF/B UniFilter plate at 50 μL/well, and the plate was sealed. The GF/B UniFilter plate was allowed to stand overnight at room temperature. The radioactivity of [^3H]-Ketanserin bound to the 5-HT2A receptor was measured using Microbeta2 (PerkinElmer) at a measurement time of 1 min/well. The Saturation curve was drawn from the measured value, and the Kd value was calculated from the slope of the Scatchard Plot.
(§5) (Binding Test of the Compound According to the Present Invention)
(§6) In advance, 0.5 μL of the compound solution dissolved in DMSO was dispensed into a microplate, and the cell membrane and the hot ligand were diluted with Assay buffer, respectively. Then, the Assay buffer containing the diluted cell membrane was dispensed into a microplate at 50 μL/well. Then, the radioactive ligand solution was dispensed into a microplate at 50 μL/well, and the plate was sealed. Then, it was allowed to stand at room temperature (25° C.) for 1.5 hours. During this period, 50 mmol/L Tris-HCl (pH 7.4) was dispensed into a GF/B UniFilter plate at 50 μL/well and allowed to stand at 4° C. for 1 hour or longer. After that, filtration was performed with Cell harvester (PerkinElmer). After the GF/B UniFilter plate was dried at room temperature, MicroScinti 20 was dispensed into the GF/B UniFilter plate at 50 μL/well, and the plate was sealed. The GF/B UniFilter plate was allowed to stand overnight at room temperature. The radioactivity of [^3H]-Ketanserin bound to the 5-HT2A receptor was measured using Microbeta2 (PerkinElmer) at a measurement time of 1 min/well. The non-specific binding was calculated from the radioactivity of [^3H]-Ketanserin in the presence of […] Serotonin HCl with the unlabeled ligand, and the total binding was calculated from the radioactivity of [^3H]-Ketanserin in the absence of the compound according to the present invention (Vehicle). Finally, the Ki value was calculated from the dose-response curve.
(§7) (The binding activity of the compound according to the present invention was calculated from the following binding inhibition rate (%).)
(§8) Inhibition rate (%)=[1−(c−a)/(b−a)]×100 • a; mean cpm of non-specific binding • b; mean cpm of total binding • c; cpm in the presence of the test compound

Test [2] addresses human recombinant 5-HT2C receptor (Homo sapiens (Human), UniProt P28335). As to the kind of experiment: 5-HT2C receptor binding inhibition test ([3H]-Mesulergine). On the procedure: as §1
Cell membrane: Jump-In HEK cell membrane (expressing human recombinant 5-HT2C receptor)
as §2
Radioactive ligand: [^3H]-Mesulergine around Kd value calculated by the following method
as §3
as §4, with “[…]” for “4°”, “The radioactivity of [^3H]-Ketanserin bound to the 5-HT2A receptor was measured using Microbeta2 (PerkinElmer) at a measurement time of 1 min/well.” left out
as §5
as §6, with “37° C.” for “room temperature (25° C.)”, “2” for “1.5”, “The radioactivity of [^3H]-Ketanserin bound to the 5-HT2A receptor was measured using Microbeta2 (PerkinElmer) at a measurement time of 1 min/well.” left out, “[^3H]-Mesulergine” for “[^3H]-Ketanserin”
as §7, §8

Where [3] appears, read: Jump-In HEK cell membrane, [3H]-Mesulergine, read-out: h-5-HT2C Ki.

Read-outs that look alike come from different tables or passages of the source. A value given as a limit tells only on which side of the number the result lay.

human recombinant 5-HT2C receptor, sequence (P28335 33-458): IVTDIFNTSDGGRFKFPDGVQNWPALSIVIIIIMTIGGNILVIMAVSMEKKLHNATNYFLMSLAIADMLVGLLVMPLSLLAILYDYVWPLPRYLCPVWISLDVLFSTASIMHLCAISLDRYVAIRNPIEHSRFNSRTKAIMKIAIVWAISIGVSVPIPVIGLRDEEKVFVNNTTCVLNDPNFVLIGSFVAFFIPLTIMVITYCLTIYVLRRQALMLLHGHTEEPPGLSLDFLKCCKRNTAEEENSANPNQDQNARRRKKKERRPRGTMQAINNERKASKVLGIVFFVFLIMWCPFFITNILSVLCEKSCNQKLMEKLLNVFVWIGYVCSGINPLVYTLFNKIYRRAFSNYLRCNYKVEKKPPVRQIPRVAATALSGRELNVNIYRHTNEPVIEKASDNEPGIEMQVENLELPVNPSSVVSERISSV
human recombinant 5-HT2A receptor, sequence (P28223 whole entry): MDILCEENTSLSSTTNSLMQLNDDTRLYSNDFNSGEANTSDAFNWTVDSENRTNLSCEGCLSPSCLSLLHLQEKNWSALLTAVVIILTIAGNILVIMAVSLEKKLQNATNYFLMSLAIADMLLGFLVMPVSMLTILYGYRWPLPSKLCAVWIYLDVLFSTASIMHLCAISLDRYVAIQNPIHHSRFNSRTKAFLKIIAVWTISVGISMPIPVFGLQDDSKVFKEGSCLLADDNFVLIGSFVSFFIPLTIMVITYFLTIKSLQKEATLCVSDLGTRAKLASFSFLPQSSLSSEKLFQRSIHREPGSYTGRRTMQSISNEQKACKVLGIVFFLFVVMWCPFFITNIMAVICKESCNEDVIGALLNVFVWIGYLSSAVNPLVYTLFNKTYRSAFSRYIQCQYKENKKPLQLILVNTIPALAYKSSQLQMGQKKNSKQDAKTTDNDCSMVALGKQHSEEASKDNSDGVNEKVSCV

In the case of `CC(C)COc1ccc(CN(Cc2ccn(C)n2)C(=O)N[C@H]2CCN(C)C[C@@H]2C)cc1` [Compound I-064], the Ki in test [1] and in test [2] (setting [3]) was < 0.01 µM each time.
Take `CC(C)COc1ccc(CN(Cc2ccn(C)n2)C(=O)N[C@@H]2CCN(C)C[C@H]2C)cc1` [Compound I-065]: the Ki in test [1] and in test [2] (setting [3]) was < 0.01 µM in each case.
On to `CC(C)COc1ccc(CN(Cc2ccn(C)n2)C(=O)NC2(C)CCN(C)CC2)cc1` [Compound I-066], for which the Ki in test [1] lay within 0.01 to 0.1 µM; in test [2] (setting [3]) it was 0.1 to 5 µM.
With `CC(C)COc1ccc(CN(Cc2ccn(C)n2)C(=O)NC23CCN(CC2)CC3)cc1` [Compound I-068], the figures for the Ki in test [1] and in test [2] were 0.01 to 0.1 µM and 0.1 to 5 µM, respectively.
Take `CCN1CCC(NC(=O)N(Cc2ccc(OCC(C)C)cc2)Cc2ccn(C)n2)CC1` [Compound I-069]: the results for the Ki in test [1] and in test [2] (setting [3]) were < 0.01 µM and 0.01 to 0.1 µM, respectively.
Turning to `CC(C)COc1ccc(CN(Cc2ccn(C)n2)C(=O)N[C@H]2C[C@H]3CC[C@@H](C2)N3C)cc1` [Compound I-070], the Ki in test [1] and in test [2] was 0.01 to 0.1 µM in each case.
On to `CC(C)COc1ccc(CN(Cc2ccn(C)n2)C(=O)NC2CCN(CC3CCC3)CC2)cc1` [Compound I-076], for which the Ki was < 0.01 µM in test [1] and 0.01 to 0.1 µM in test [2] (setting [3]).
Regarding `Cc1nc(CN(Cc2ccc(OCC(C)C)cc2)C(=O)N[C@H]2CCN(C)C[C@H]2F)co1` [Compound I-078], the Ki in test [1] and in test [2] (setting [3]) was < 0.01 µM each time.
Turning to `CC(C)COc1ccc(CN(Cc2ccn(C)n2)C(=O)NC2CCNCC2)cc1` [Compound I-079], the Ki in test [1] and in test [2] (setting [3]) was < 0.01 µM in each case.
With `Cc1nc(CN(Cc2ccc(OCC(C)C)cc2)C(=O)N[C@H]2CCNC[C@H]2F)co1` [Compound I-080], the Ki in test [1] and in test [2] (setting [3]) was < 0.01 µM each time.
With `Cc1ccc(CN(Cc2ccc(OCC(C)C)cc2)C(=O)OC2CCN(C)CC2)[nH]1` [Compound I-085], the Ki is < 0.01 µM in test [1] and 0.01 to 0.1 µM in test [2] (setting [3]).
For `CCCCOc1ccc(CN(Cc2coc(C)n2)C(=O)NC2CCN(C)CC2)cc1F` [Compound I-087] the same measures were < 0.01 µM and < 0.01 µM.
The matching figures for `CCCCOc1ccc(CN(Cc2coc(C)n2)C(=O)N[C@H]2CCN(C)CC23CC3)cc1` [Compound I-089]: < 0.01 µM and < 0.01 µM.
Regarding `CCCCOc1ccc(CN(Cc2coc(C)n2)C(=O)N[C@H]2CCN(C)CC23CC3)cc1F` [Compound I-090], the Ki in test [1] and in test [2] (setting [3]) was < 0.01 µM in each case.
In the case of `CCCCOc1ccc(CN(Cc2coc(C)n2)C(=O)N[C@H]2CCN(C)CC23CC3)c(F)c1` [Compound I-091], the Ki in test [1] and in test [2] (setting [3]) was < 0.01 µM each time.
Regarding `CC(C)COc1ccc(CN(Cc2ccn(C)c2)C(=O)OC2CCN(C)CC2)cc1` [Compound I-092], the Ki in test [1] and in test [2] (setting [3]) was < 0.01 µM throughout.
As for `CC(C)COc1ccc(CN(Cc2ccc(F)cn2)C(=O)OC2CCN(C)CC2)cc1` [Compound I-093], the Ki is < 0.01 µM in test [1] and 0.01 to 0.1 µM in test [2] (setting [3]).
As to `COc1ccc(CN(Cc2ccn(C)c2)C(=O)OC2CCN(C)CC2)cc1` [Compound I-094], the Ki in test [1] is < 0.01 µM; in test [2] (setting [3]), 0.01 to 0.1 µM.
`COc1ccc(CN(Cc2coc(C)n2)C(=O)OC2CCN(C)CC2)cc1` [Compound I-095]: the Ki in test [1] and in test [2] (setting [3]) was 0.01 to 0.1 µM each time.
On to `CCCCOc1ccc(CN(Cc2cnn(C)n2)C(=O)N[C@H]2CCN(C)CC23CC3)cc1F` [Compound I-096], for which the Ki in test [1] and in test [2] (setting [3]) was < 0.01 µM in each case.
In the case of `CCCCOc1ccc(CN(Cc2cnn(C)n2)C(=O)N[C@H]2CCN(C)CC23CC3)c(F)c1` [Compound I-097], the Ki in test [1] and in test [2] (setting [3]) was < 0.01 µM in each case.
`CCCCOc1ccc(CN(Cc2cnn(C)n2)C(=O)N[C@H]2CCN(C)CC23CC3)cc1` [Compound I-098]: the Ki in test [1] and in test [2] (setting [3]) was < 0.01 µM throughout.

As a reminder, the Ki is a dissociation constant, usually derived from enzyme kinetics or from competition with a known ligand.

Source of the values: patent publication US20240083872A1, “CYCLIC AMINE DERIVATIVES HAVING SEROTONIN RECEPTOR BINDING ACTIVITY” (Shionogi & Co., Ltd., priority 2020, published 2024).
